Assay results from ChEMBL document CHEMBL5154707, “Synthesis and biological evaluation of novel hybrids of phenylsulfonyl furoxan and phenstatin derivatives as potent anti-tumor agents” (Eur J Med Chem, 2022).
Active and inactive are the calls of the source. No cut-off for these calls is given here.

Key:
HCT-116 = assay: Antiproliferative activity against human HCT-116 cells after 48 hrs by MTT assay; settings: HCT-116, 48 h
A2780 [1] = assay: cells; settings: Homo sapiens, A2780, 48 h
Description: Antiproliferative activity against human A2780 cells after 48 hrs by MTT assay

MDA-MB-231 = assay: cells; settings: Homo sapiens, MDA-MB-231, 48 h
Description: Antiproliferative activity against human MDA-MB-231 cells after 48 hrs by MTT assay

A549 = assay: cells; settings: Homo sapiens, A549, 48 h
[2] = Antiproliferative activity against human A2780/PTX cells after 48 hrs by MTT assay
A2780cisR = assay: Antiproliferative activity against human A2780 cisR cells after 48 hrs by MTT assay; format: functional, cell-based
[3] = Resistant factor, ratio of IC50 for antiproliferative activity against human A2780/PTX cells to IC50 for human A2780 cells; format: functional
[4] = Resistant factor, ratio of IC50 for antiproliferative activity against human A2780 cisR cells to IC50 for human A2780 cells; format: functional
[5] = Cytotoxicity against human HOSE cells after 48 hrs by MTT assay; format: toxicity, cell-based
A2780 [6] = assay: Induction of nitric oxide release in human A2780 cells measured by Griess reagent based assay; format: functional, cell-based
Tubulin = Tubulin (Sus scrofa, UniProt P02554+P02550); assay: Inhibition of pig brain tubulin polymerization
Tubulin (Homo sapiens) [7] = biological target: T1, Tubulin (Homo sapiens) (UniProt P68371+Q9H4B7+P0DPH7+P68366+Q13509+Q71U36+P04350+Q3ZCM7+P07437+P68363+Q9BQE3+Q6PEY2+Q13885+Q9BVA1+Q9BUF5); assay: Inhibition of tubulin polymerization in A549 cells assessed as disruption of microtubule network at 10 to 20 nM measured by immunofluorescence assay; format: cell-based; settings: dose 10-20 nM
Tubulin (Homo sapiens) [8] = biological target: T1, Tubulin (Homo sapiens); assay: Inhibition of tubulin polymerization in A549 cells assessed as disruption of microtubule network at 20 nM measured by immunofluorescence assay; format: cell-based

SMILES | IC50 (HCT-116) [nM] | IC50 (A2780 [1]) [nM] | IC50 (MDA-MB-231) [nM] | IC50 (A549) [nM] | other results
COc1ccc(C(=O)c2ccc(F)cc2)cc1O | > 20000 | > 20000 | > 20000 | > 20000 | 
COc1ccc(C(=O)c2cc(OC)c(OC)c(OC)c2)cc1O [PHENSTATIN] | 170 | 120 | 51 | 21000 | IC50 [2]: 9350 nM; IC50 (A2780cisR): 2850 nM; Ratio IC50 [3]: 77.9; Ratio IC50 [4]: 23.8; IC50 at 48 h [5]: 160 nM; Activity (A2780 [6]): Active
COc1cc(OCCOc2no[n+]([O-])c2S(=O)(=O)c2ccccc2)cc(C(=O)c2ccc(Br)cc2)c1 |  |  |  |  | IC50 (Tubulin): 1600 nM; inhibition (Tubulin (Homo sapiens) [7]): Active; inhibition (Tubulin (Homo sapiens) [8]): Active
CC(=O)O[C@H]1C(=O)[C@@]2(C)[C@H]([C@H](OC(=O)c3ccccc3)[C@]3(O)C[C@H](OC(=O)[C@H](O)[C@@H](NC(=O)c4ccccc4)c4ccccc4)C(C)=C1C3(C)C)[C@]1(OC(C)=O)CO[C@@H]1C[C@@H]2O [PACLITAXEL] |  |  |  |  | IC50 at 48 h [5]: 18 nM
COc1ccc(/C=C\c2cc(OC)c(OC)c(OC)c2)cc1O [COMBRETASTATIN A4] |  |  | 12 | 6 | 

Continued, in another order:

IC50 (HCT-116) [nM] | IC50 (A2780 [1]) [nM] | IC50 (MDA-MB-231) [nM] | IC50 (A549) [nM] | SMILES | other results
124000 | 170 | 120 | 34000 | COc1ccc(C(=O)c2ccc3ccccc3c2)cc1O | 
2680 |  | 1870 | 235000 | O=S(=O)(c1ccccc1)c1no[n+]([O-])c1S(=O)(=O)c1ccccc1 | Activity (A2780 [6]): Active
3650 | 1160 | 2110 | 224000 | COc1ccc(C(=O)c2ccc(Br)cc2)cc1O | 
2650 | 3690 | 4180 | 6640 | COc1ccc(C(=O)c2ccc(Cl)cc2)cc1O | 
